The test system of one assay is MDA-MB-231 (breast). As to the kind of experiment: In vitro cytotoxic activity (MTT) assay, MDA-MB-231. As to conditions: Homo sapiens; MDA-MB-231 cells, exposed for 96 hours, 50% inhibition of cell proliferation; read-out: Cytotoxicity activity IC50, MDA-MB-231 (breast). The class given is cell-based. Here is the method: (§1) Compounds 1-16 were screened for their in vitro cytotoxic activity utilizing a 3-(4,5-dimethyl-thiazol-2-yl)-2,5-diphenyltetrazolium bromide (MTT) assay against selected cancer human cell lines consisting of PC3 (prostate), HCT116 (colon), A375 (melanoma), H1299 (lung), MIAPaCa-2 (pancreas), HL60 (leukemia), MCF7 (breast), MDA-MB-231 (breast) (T. Mosmann, J. Immunol. Meth., 1983, 65, 55-63). The cells were cultured at 37° C. in RMPI1640 medium supplemented with 10% fetal bovine serum, 50 IU/mL penicillin, and 50 μg/mL streptomycin in a 5% CO2 incubator. All cells were sub-cultured 3 times/week by trypsinisation. Viable cells were seeded and allowed to adhere for 12 hours before a test drug was added in 96-well plates at an initial density of 1.0×10^5 cells/mL. Tumor cell lines were separately exposed to various concentrations of the tested compounds followed by incubation at a temperature of 37° C. during 96 hours inside a medium of fresh RMPI 1640. Cells were subsequently incubated at 37° C. using MTT at 0.5 mg/mL during 4 hours. After removal of supernatant, formazan crystals were dissolved in isopropanol and the optical density was measured at 570 nm. CX-4945 was used as a positive control.

For a further assay, the system named is A375 (melanoma). As to the kind of experiment: In vitro cytotoxic activity (MTT) assay, A375. As to conditions: Homo sapiens, A-375; A375 cells, exposed for 96 hours, 50% inhibition of cell proliferation; read-out: Cytotoxicity activity IC50, A375 (melanoma). It is filed as cell-based. How it is done: as §1
The test system of the next assay is MCF7 (breast). The assay is described as follows: In vitro cytotoxic activity (MTT) assay, MCF7. It is filed as cell-based. As to conditions: Homo sapiens; MCF7 cells, exposed for 96 hours, 50% inhibition of cell proliferation; read-out: Cytotoxicity activity IC50, MCF7 (breast). How it is done: as §1
The next assay has as its system HCT116 (colon). The assay is described as follows: In vitro cytotoxic activity (MTT) assay, HCT116. It is filed as cell-based. As to conditions: Homo sapiens, HCT-116; HCT116 cells, exposed for 96 hours, 50% inhibition of cell proliferation; read-out: Cytotoxicity activity IC50, HCT116 (colon). How it is done: as §1
The target in the next assay is T1, recombinant human CK2 (Homo sapiens, UniProt P68400).
T1 construct: purchased Millipore
The assay is described as follows: CK2 Kinase Assay (33P-ATP, substrate peptide RRRDDDSDDD). It is filed as biochemical. The settings on record: recombinant human CK2 holoenzyme, final ATP concentration 15 μM, 10 min at 30° C.; read-out: protein kinase CK2 IC50. Here is the method: CK2 Kinase Assay was conducted using the protocol as described in Pierre F. et al; J. Med. Chem. 2011, 54, 635-654. The tested compounds in aqueous solution were added at a volume of 10 μL to a reaction mixture comprising 10 μL of assay dilution buffer (ADB; 20 mM MOPS, pH 7.2, 25 mM β-glycerol phosphate, 5 mM EGTA, 1 mM sodium orthovanadate, and 1 mM dithiothreitol), 10 μL of substrate peptide (RRRDDDSDDD, dissolved in ADB at a concentration of 1 mM), 10 μL of recombinant human CK2 (RROP-holoenzyme, 25 ng dissolved in ADB; Millipore). Reactions were initiated by the addition of 10 μL of ATP solution (90% 75 mMMgCl2, 75 μM ATP (final ATP concentration: 15 μM) dissolved in ADB; 10% [γ-33P] ATP (stock 1 mCi/100 μL; 3000 Ci/mmol (Perkin-Elmer) and maintained for 10 min at 30° C. The reactions were quenched with 100 μL of 0.75% phosphoric acid and then transferred to and filtered through a phosphor cellulose filter plate (Millipore). After washing each well five times with 0.75% phosphoric acid, the plate was dried under vacuum for 5 min and, following the addition of 15 μL of scintillation fluid to each well, the residual radioactivity was measured using a Wallac […] counter. The IC50 values were derived from eight concentrations of test inhibitors.

For another assay, the system named is MIAPaCa-2 (pancreas). The assay is described as follows: In vitro cytotoxic activity (MTT) assay, MIAPaCa-2. The class given is cell-based. As to conditions: Homo sapiens, MIA PaCa-2; MIAPaCa-2 cells, exposed for 96 hours, 50% inhibition of cell proliferation; read-out: Cytotoxicity activity IC50, MIAPaCa-2 (pancreas). How it is done:
as §1

The test system of a further assay is HL60 (leukemia). The assay is described as follows: In vitro cytotoxic activity (MTT) assay, HL60. It is filed as cell-based. The settings on record: Homo sapiens, HL-60; HL60 cells, exposed for 96 hours, 50% inhibition of cell proliferation; read-out: Cytotoxicity activity IC50, HL60 (leukemia). Here is the method: as §1
Another assay deals with PC3 (prostate). As to the kind of experiment: In vitro cytotoxic activity (MTT) assay, PC3. The class given is cell-based. As to conditions: Homo sapiens, PC-3; PC3 cells, exposed for 96 hours, 50% inhibition of cell proliferation; read-out: Cytotoxicity activity IC50, PC3 (prostate). Here is the method:
as §1

The next assay relates to H1299 (lung). The assay is described as follows: In vitro cytotoxic activity (MTT) assay, H1299. The settings on record: Homo sapiens, NCI-H1299; H1299 cells, exposed for 96 hours, 50% inhibition of cell proliferation; read-out: Cytotoxicity activity IC50, H1299 (lung). The class given is cell-based. How it is done: as §1

Our source for the IC50 values is patent publication US12012414B1, “Imidazo[1,5-a]pyrido[4,3-e]pyrimidines as CK2 inhibitors” (KING FAISAL UNIVERSITY, priority 2024, dated 2024).

T1 sequence (P68400 whole entry): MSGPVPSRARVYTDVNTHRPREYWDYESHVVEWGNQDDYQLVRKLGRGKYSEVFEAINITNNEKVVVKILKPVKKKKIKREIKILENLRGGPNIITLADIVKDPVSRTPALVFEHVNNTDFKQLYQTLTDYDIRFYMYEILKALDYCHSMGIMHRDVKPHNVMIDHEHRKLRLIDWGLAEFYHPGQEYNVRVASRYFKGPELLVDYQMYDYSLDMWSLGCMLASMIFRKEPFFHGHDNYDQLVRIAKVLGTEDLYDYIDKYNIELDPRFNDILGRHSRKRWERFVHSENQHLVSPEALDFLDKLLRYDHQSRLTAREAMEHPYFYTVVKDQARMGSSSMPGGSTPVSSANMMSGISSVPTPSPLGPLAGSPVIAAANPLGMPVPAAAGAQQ
T1 sequence (P67870 whole entry partner): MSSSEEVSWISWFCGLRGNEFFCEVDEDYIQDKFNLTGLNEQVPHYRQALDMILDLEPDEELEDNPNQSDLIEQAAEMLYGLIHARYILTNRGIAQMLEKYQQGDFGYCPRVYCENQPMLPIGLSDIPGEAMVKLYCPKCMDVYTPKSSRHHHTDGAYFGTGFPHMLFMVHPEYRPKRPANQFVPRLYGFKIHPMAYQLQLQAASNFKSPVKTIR

What is called IC50 is the concentration that gives 50% inhibition. On to `O=C(O)c1ncn2c1nc(Nc1cccc(Cl)c1)c1ccncc12` [Compound 1, 5-((3-chlorophenyl)amino)imidazo[1,5-a]pyrido[4,3-e]pyrimidine-3-carboxylic acid], for which the IC50 with MDA-MB-231 (breast) was determined as 4500 nM; with A375 (melanoma), 3800 nM; in the assay on MCF7 (breast), 5400 nM; in the assay with HCT116 (colon) it was 2000 nM; on recombinant human CK2, 74 nM; in the assay on MIAPaCa-2 (pancreas), 1300 nM. Moreover, the IC50 amounted to 3600 nM in the assay with HL60 (leukemia), 1700 nM in the assay with PC3 (prostate) and 1900 nM with H1299 (lung).
